Like-named read-outs stand apart in the source and are kept apart here.
Assays:
PC-3 cells = assay: MTT cell growth inhibition, PC-3
Description: (§1) MDA PCa 2b was seeded at the same density in medium BRFF-HPC1 (Athena Enzyme Systems, Baltimore, Md., USA) supplemented with 20% FBS. After overnight incubation, the medium was changed to a fresh medium containing different concentrations of test compounds diluted from stock DMSO solution. The final concentration of DMSO is 0.5%. After 72 h of incubation with test compounds, 20 μL of 3-(4,5-dimethyl thiazol-2-yl)-2,5-diphenyltetrazolium bromide (MTT) solution (5 mg/mL in PBS) were added to each well and incubated further for 2 h. Next, the supernatant was aspirated and the MTT formazan formed by metabolically viable cells was dissolved in 100 μL of isopropanol. The plates were mixed for 30 min, and the absorbance was measured at 600 nm on a plate reader (FLUOstar OPTIMA, BMG LabTech). All samples were in triplicate. The IC50 values were determined from dose-response curves by nonlinear regression using PRISM v5.00 (GraphPad Software Inc, La Jolla, Calif., USA).
(§2) The in vitro cytotoxicity of 1-20 were evaluated by MTT assays in a panel of prostate cancer cell lines, including LNCaP, MDA PCa 2b, 22Rv1, C4-2B and PC-3.

LNCaP cells = assay: MTT cell growth inhibition, LNCaP;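 note: MTT formazan absorbance at 600 nm read after 72 h of compound exposure, IC50 fitted by nonlinear regression of dose-response curves, samples run in triplicate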
C4-2B cells = assay: MTT cell growth inhibition, C4-2B;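 note: cells treated with a dilution series for 72 h, then MTT added and absorbance read at 600 nm, IC50 fitted from dose-response curves by nonlinear regression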
Description: as §1, §2

22Rv1 cells = assay: MTT cell growth inhibition, 22Rv1; conditions: MTT
[1] = read-out: IC50 (μM) PC-3, Table 1, 72 h, maximum tested concentration 50 μM
[2] = read-out: IC50 (μM) LNCaP, Table 1, 72 h
[3] = read-out: Cellular IC50 (μM) PC-3, Table 9
[4] = read-out: Cellular IC50 (μM) LNCaP, Table 9
[5] = read-out: Cellular IC50 (μM) C4-2B, Table 9
[6] = read-out: Cellular IC50 (μM) 22Rv1, Table 9
[7] = read-out: Cellular IC50 (μM) PC3, Table 8
[8] = read-out: Cellular IC50 (μM) LNCaP, Table 8
[9] = read-out: Cellular IC50 (μM) C4-2B, Table 8
[10] = read-out: Cellular IC50 (μM) 22Rv1, Table 8
[11] = read-out: Cellular IC50 (μM) PC-3, Table 2, 72 h, max tested 50 μM (β-ionone 150 μM)
[12] = read-out: Cellular IC50 (μM) LNCaP, Table 2, 72 h
[13] = read-out: Cellular IC50 (μM) C4-2B, Table 2, 72 h
[14] = read-out: Cellular IC50 (μM) 22Rv1, Table 2, 72 h
[15] = read-out: IC50 (μM) C4-2B, Table 1, 72 h

Structure (SMILES)	IC50 (PC-3 cells; [3]) [µM]	IC50 (LNCaP cells; [4]) [µM]	IC50 (22Rv1 cells; [6]) [µM]	IC50 (PC-3 cells; [7]) [µM]	IC50 (LNCaP cells; [8]) [µM]	IC50 (22Rv1 cells; [10]) [µM]	IC50 (C4-2B cells; [9]) [µM]	also measured
COc1ccc(/C=C/C(O)=C/C(=O)/C=C/C2=C(C)CCCC2(C)C)cn1 [Compound 8]								IC50 (PC-3 cells; [1]): 52.2 µM; IC50 (LNCaP cells; [2]): 25.1 µM
CC1(C)CCC(O)C=C1/C=C/C(=O)/C=C/c1ccc2c(c1)OCCO2 (stereo not shown) [Compound B78]	23.2	10.8	19.3					IC50 (C4-2B cells; [5]): 10.3 µM
COc1cc(OC)c(/C=C/C(=O)/C=C/C2=C(C)C(O)CCC2(C)C)c(OC)c1 (stereo not shown) [Compound B74]				> 25	15.5	21	11.6	
COc1cc(/C=C/C(=O)/C(=C/c2ccc3ccccc3n2)C(=O)/C=C/C2=C(C)CCCC2(C)C)ccc1O [Compound 20]								IC50 (PC-3 cells; [11]): 15.2 µM; IC50 (LNCaP cells; [12]): 8.5 µM; IC50 (C4-2B cells; [13]): 5.3 µM; IC50 (22Rv1 cells; [14]): 5.1 µM
COc1ccc(/C=C/C(=O)/C(=C/c2ccc(OC)nc2)C(=O)/C=C/C2=C(C)CCCC2(C)C)cn1 [Compound 17]								IC50 (PC-3 cells; [11]): 31 µM; IC50 (LNCaP cells; [12]): 15.7 µM; IC50 (C4-2B cells; [13]): 12.2 µM; IC50 (22Rv1 cells; [14]): 9.9 µM
COc1cc(/C=C/C(=O)/C=C/C2=C(C)C(O)CCC2(C)C)c(OCc2ccccc2)cc1OC (stereo not shown) [Compound B75]				25.4	16.7	19.2	23.3	
CC1(C)CCC(O)C=C1/C=C/C(=O)/C=C/c1ccnc2ccccc12 (stereo not shown) [Compound B96]	2.2	1.5	1.2					IC50 (C4-2B cells; [5]): 1.5 µM
COc1cc(/C=C/C(O)=C/C(=O)/C=C/C2=C(C)CCCC2(C)C)cc(OC)c1O [Compound 6]								IC50 (PC-3 cells; [1]): 26.7 µM; IC50 (LNCaP cells; [2]): 6.2 µM; IC50 (C4-2B cells; [15]): 9.8 µM; IC50 (22Rv1 cells; read-out: IC50 (μM) 22Rv1, Table 1, 72 h): 12.2 µM
CC1=C(/C=C/C(=O)/C=C/c2ccc(C)cc2)C(C)(C)CCC1O (stereo not shown) [Compound B51]				18.6	11.5	12.3	5.9	
CC1(C)CCC(O)C=C1/C=C/C(=O)/C=C/c1ccc2[nH]ccc2c1 (stereo not shown) [Compound B89]	3.1	1.5	2.3					IC50 (C4-2B cells; [5]): 1.6 µM
CC1=C(/C=C/C(=O)/C=C/c2ccc(Oc3ccccc3)cc2)C(C)(C)CCC1O (stereo not shown) [Compound B56]				11.5	10.4	10.4	7.5	
CC1=C(/C=C/C(=O)/C=C/c2ccc(N(C)C)cc2)C(C)(C)CCC1O (stereo not shown) [Compound B63]				13	8.8	42		
CC1=C(/C=C/C(=O)/C=C/c2cc(F)ccc2F)C(C)(C)CCC1O (stereo not shown) [Compound B66]				7.2	3.5	4.5	6.9	
CC1=C(/C=C/C(=O)/C=C/c2ccc(F)cc2F)C(C)(C)CCC1O (stereo not shown) [Compound B67]				7.5	4.3	4.8	2.1	
COc1ccc(/C=C/C(O)=C/C(=O)/C=C/C2=C(C)CCCC2(C)C)cc1OC [Compound 3]								IC50 (PC-3 cells; [1]): 47.9 µM; IC50 (LNCaP cells; [2]): 26.4 µM; IC50 (C4-2B cells; [15]): 30.6 µM
COc1ccc(C=CC(=O)C(=Cc2ccc(OC)c(O)c2)C(=O)C=CC2=C(C)CCCC2(C)C)cc1O [Compound 11]								IC50 (PC-3 cells; [11]): 29.2 µM; IC50 (LNCaP cells; [12]): 7.3 µM; IC50 (C4-2B cells; [13]): 4.5 µM; IC50 (22Rv1 cells; [14]): 5.2 µM

More lines, main results first:

IC50 (PC-3 cells; [3]) [µM]	IC50 (LNCaP cells; [4]) [µM]	IC50 (22Rv1 cells; [6]) [µM]	IC50 (PC-3 cells; [7]) [µM]	IC50 (LNCaP cells; [8]) [µM]	IC50 (22Rv1 cells; [10]) [µM]	Structure (SMILES)	IC50 (C4-2B cells; [9]) [µM]	also measured
			11.9	2.9	5.2	CC1=C(/C=C/C(=O)/C=C/c2ccc(-c3ccccc3)cc2)C(C)(C)CCC1O (stereo not shown) [Compound B57]	6	
14.8	4.7	10.4				CC1(C)CCC(O)C=C1/C=C/C(=O)/C=C/c1ccc2c(c1)CCO2 (stereo not shown) [Compound B79]		IC50 (C4-2B cells; [5]): 5.6 µM
19.8	7	9.5				Cn1c(/C=C/C(=O)/C=C/C2=CC(O)CCC2(C)C)cc2ccccc21 (stereo not shown) [Compound B80]		
5.8	2.2	4				CC1(C)CCC(O)C=C1/C=C/C(=O)/C=C/c1c[nH]c2ccc(Br)cc12 (stereo not shown) [Compound B85]		IC50 (C4-2B cells; [5]): 4.8 µM
3.2	1.1					CC1(C)CCC(O)C=C1/C=C/C(=O)/C=C/c1ccc2c(c1)OC(F)(F)O2 (stereo not shown) [Compound B77]		
13.7	3.2	12.6				CC1(C)CCC(O)C=C1/C=C/C(=O)/C=C/c1c(-c2ccccc2)[nH]c2ccccc12 (stereo not shown) [Compound B87]		IC50 (C4-2B cells; [5]): 2.2 µM
			7.6	2.5	4.6	CC1=C(/C=C/C(=O)/C=C/c2ccccc2C)C(C)(C)CCC1O (stereo not shown) [Compound B64]	2.7	

Source: patent US8470889B2 (TRT Pharma Inc., priority 2008, dated 2013)
